# Read-outs that look alike come from different tables or passages of the source.
# Molecular target: T1, human Nav1.1 (Homo sapiens, UniProt P35498)
# T1 construct: host or cells: HEK293
# Test: Amplification of Nav1.1-derived voltage-gated sodium current (Nav1.1 current), automated patch clamp (Test 1)
# Format: cell-based
# Conditions: for activation at 10 µM: HEK293, Concentration for evaluation 10 μM
# Procedure: Test 1: Evaluation of the Amplification of Nav1.1-Derived Voltage-Gated Sodium Current (Nav1.1 Current) by Using a Cell Line Stably Expressing Human Nav1.1
# (1) Preparation of Test Compound Solution
# Test compounds were prepared by dissolving in DMSO at 200 times of the concentration at evaluation, and diluting the obtained solution to twice the concentration of evaluation with an extracellular fluid (135 mmol/L NaCl, 4 mmol/L KCl, 1 mmol/L MgCl2, 5 mmol/L CaCl2, 5 mmol/L Glucose, 10 mmol/L HEPES).
# (2) Induction and Measurement of Nav1.1 Current
# A HEK293 cell line stably expressing human Nav1.1 (cat #CYL3009, Eurofins DiscoverX Products, LLC, Human Embryonic Kidney 293) was purchased, and used in the present test. Nav1.1 current was induced by stimulating Ramp wave voltage. Detection of current which accompanied with the stimulation of voltage was carried out by a patch-clamp voltage-clamp method using HTS automated patch clamp system (SynchroPatch 768PE, Nanion Technologies GmbH, Germany). Only cells with more than 500 pA of voltage-gated sodium channel current were used for the evaluation of the activity of compounds on Nav1.1 current because there was the possibility that currents derived from endogenous voltage-gated sodium channels accounted for large proportion in cells with less than 500 pA of voltage-gated sodium channel current which was induced by stimulating Ramp wave voltage.
# (3) Pharmacological Effect on Nav1.1 Current
# The effect of test compounds on the amplification of Nav1.1-derived voltage-gated sodium current was evaluated by using a cell line stably expressing human Nav1.1 and HTS automated patch clamp system. In other words, test compounds were added in an extracellular fluid containing 1% DMSO, and evaluated as a change of the peak value of Nav1.1 current and the area under the curve (AUC).
# (4) Method for Pharmacological Evaluation
# The Nav1.1 current amplification rates of test compounds were calculated by the following formula:
# Nav1.1 current amplification rate (%)=100×[the peak value of Nav1.1 current or the area under the curve after the addition of test compounds]/[the peak value of Nav1.1 current or the area under the curve before the addition of test compounds]−100
# [1] = Concentration for evaluation 3 μM, HEK293 cell line stably expressing human Nav1.1
# [2] = Concentration for evaluation 1 μM, HEK293 cell line stably expressing human Nav1.1
# [3] = HEK293, Concentration for evaluation 1 μM, HEK293 cell line stably expressing human Nav1.1, read-out: Nav1.1 current amplification rate (%)
# [4] = concentration for evaluation 50 μM, HEK293 stably expressing human Nav1.1
# [5] = HEK293 cell line stably expressing human Nav1.1, read-out: Nav1.1 current amplification rate (%)
# [6] = Concentration for evaluation 10 μM, HEK293 cell line stably expressing human Nav1.1
# [7] = concentration for evaluation 1 μM, HEK293 stably expressing human Nav1.1
# [8] = HEK293, concentration for evaluation 1 μM, HEK293 stably expressing human Nav1.1, read-out: Nav1.1 current amplification rate (%)
structure (smiles),measurement,setting,value
COC1CN(Cc2nc3cc(NC(=O)Cn4nc(C5=CCC(C)CC5)ccc4=O)ccc3o2)C1 (stereo not shown) [Example 332],Nav1.1 current amplification rate (%),[1],15%
CCN1CC(c2cccc3c2CCN3C(=O)Cn2nc(C3=CCC(C)CC3)ccc2=O)C1 (stereo not shown) [Example 302],Nav1.1 current amplification rate (%),[1],104%
COCCN(C)Cc1cccc2c1CCN2C(=O)Cn1nc(C2=CCC(C)CC2)ccc1=O (stereo not shown) [Example 275],Nav1.1 current amplification rate (%),[2],46%
CC1CC=C(c2ccc(=O)n(CC(=O)Nc3ccc4oc(C(C)(C)O)nc4c3)n2)CC1 (stereo not shown) [Example 327],Nav1.1 current amplification rate (%),[1],124%
CN(c1cnc2cnn(CC(=O)Nc3ccc4ncncc4c3)c2n1)C1CC(C)(C)C1 [Example 758],activation at 1 µM,[3],61%
CC1CCN(c2ccc3cnn(CC(=O)Nc4ccc(C(F)(F)F)nc4)c3n2)CC1 [Example 879],Nav1.1 current amplification rate (%),[4],16%
Cc1cc(NC(=O)Cn2nc(C3=CCC(F)(F)CC3)ccc2=O)cc(C)n1 [Example 102],activation at 10 µM,[5],8%
CN(c1cnc2cnn(CC(=O)Nc3cc4cccnc4cn3)c2n1)C1CC1 [Example 729],Nav1.1 current amplification rate (%),[6],55%
CC1CC=C(c2ccc(=O)n(CC(=O)N3CCc4c(C5=CCNC5)cccc43)n2)CC1 (stereo not shown) [Example 265],Nav1.1 current amplification rate (%),[1],110%
CN(c1cnc2cnn(CC(=O)N3CCc4c(-c5cnn(C)c5)cccc43)c2n1)C1CCC1 [Example 694],Nav1.1 current amplification rate (%),[2],448%
Cc1ccc(-c2ccc(=O)n(CC(=O)Nc3cncnc3)n2)cc1 [Example 141],Nav1.1 current amplification rate (%),[6],46%
CN(c1cnc2cnn(CC(=O)Nc3ccc4nccnc4c3)c2n1)C1CCCC1 [Example 680],Nav1.1 current amplification rate (%),[2],50%
O=C(Cn1ncc2cnc(N3CCC4(CCC4)CC3)nc21)Nc1ccc2ncnn2c1 [Example 811],Nav1.1 current amplification rate (%),[7],23%
Cc1nc2cc(NC(=O)Cn3nc(N4CCC(C)CC4)ccc3=O)ccc2s1 [Example 88],Nav1.1 current amplification rate (%),[6],183%
CC1CC(C)CN(c2ccc(=O)n(CC(=O)Nc3ccc(C#N)cc3)n2)C1 (stereo not shown) [Example 14],Nav1.1 current amplification rate (%),[6],9%
CC1CC=C(c2ccc(=O)n(CC(=O)N3CCc4c(C5CN(C(=O)C(C)(C)O)C5)cccc43)n2)CC1 (stereo not shown) [Example 306],Nav1.1 current amplification rate (%),[1],532%
CC1CCN(c2ccc(=O)n(CC(=O)Nc3cncc(C#N)c3)n2)CC1 [Example 60],Nav1.1 current amplification rate (%),[6],57%
Cc1cc(NC(=O)Cn2ncc3cnc(N(C)C4CCCC4)nc32)cc2ncnn12 [Example 837],activation at 1 µM,[8],103%
CC1CC=C(c2ccc(=O)n(CC(=O)NC3CCN(c4ccccc4)CC3)n2)CC1 (stereo not shown) [Example 368],Nav1.1 current amplification rate (%),[6],18%
CC1CC(C)CN(c2ccc(=O)n(CC(=O)Nc3ccc(C#N)cc3)n2)C1 (stereo not shown) [Example 15],Nav1.1 current amplification rate (%),[6],10%
CN(c1cnc2cnn(CC(=O)Nc3ccc(C#N)nc3)c2n1)C1CC1 [Example 709],Nav1.1 current amplification rate (%),[2],44%
Cc1cn2ccc(NC(=O)Cn3ncc4ncc(N(C)C5CC5)nc43)cc2n1 [Example 703],Nav1.1 current amplification rate (%),[2],27%
CC1CCN(c2ccc3cnn(CC(=O)Nc4ccc5cnnn5c4)c3n2)CC1 [Example 878],Nav1.1 current amplification rate (%),[7],42%
CC1CC=C(c2ccc(=O)n(CC(=O)Nc3ccc4oc(C(F)F)nc4c3)n2)CC1 (stereo not shown) [Example 243],Nav1.1 current amplification rate (%),[6],276%
CC(C)CN(C)c1cnc2cnn(CC(=O)Nc3ccc4ncnn4c3)c2n1 [Example 661],Nav1.1 current amplification rate (%),[2],12%
CC1CC=C(c2ccc(=O)n(CC(=O)Nc3cccc(N4CCOCC4)c3F)n2)CC1 (stereo not shown) [Example 322],Nav1.1 current amplification rate (%),[1],115%
N#Cc1ccc(NC(=O)Cn2nc(N3CCCCC3)ccc2=O)cn1 [Example 110],activation at 10 µM,[5],12%
CN(CC1(C)CC1)c1cnc2cnn(CC(=O)Nc3ccc4ncnn4c3)c2n1 [Example 667],Nav1.1 current amplification rate (%),[2],45%
CC1(C)CCCC(c2ccc(=O)n(CC(=O)Nc3ccc(C#N)cc3)n2)C1 (stereo not shown) [Example 46],Nav1.1 current amplification rate (%),[6],85%
O=C(Cn1nc(N2CCCCC2)ccc1=O)Nc1ccc(C(F)(F)F)nc1 [Example 104],activation at 10 µM,[5],11%
CC1CC=C(c2ccc(=O)n(CC(=O)N3CCc4c(CN5CCOCC5)cccc43)n2)CC1 (stereo not shown) [Example 270],Nav1.1 current amplification rate (%),[1],481%
CC1CC=C(c2ccc(=O)n(CC(=O)N3CCN(c4ccncc4)CC3)n2)CC1 (stereo not shown) [Example 261],Nav1.1 current amplification rate (%),[6],60%
CN(c1ncc2cnn(CC(=O)Nc3cnc4cccnc4c3)c2n1)C1CC2(CC2)C1 [Example 842],activation at 1 µM,[8],87%
CN(c1cnc2cnn(CC(=O)Nc3ccc4cnnn4c3)c2n1)C1CCCC1 [Example 679],Nav1.1 current amplification rate (%),[2],63%
CC1(C)CC=C(c2ccc(=O)n(CC(=O)Nc3ccn4ccnc4c3)n2)CC1 [Example 425],Nav1.1 current amplification rate (%),[6],283%
CC1CC=C(c2ccc(=O)n(CC(=O)N3CCc4c3ccnc4N3CCOCC3)n2)CC1 (stereo not shown) [Example 319],Nav1.1 current amplification rate (%),[2],134%
COc1ccc2c(c1)CCN2C(=O)Cn1nc(C2=CCC(C)(C)CC2)ccc1=O [Example 430],Nav1.1 current amplification rate (%),[6],28%
CC1(C)CC=C(c2ccc(=O)n(CC(=O)N3CCN(c4cncc(F)c4)CC3)n2)C1 [Example 483],Nav1.1 current amplification rate (%),[6],175%
CN(c1cnc2cnn(CC(=O)N3CCc4c(C5CN(C(=O)CO)C5)cccc43)c2n1)C1CCC1 [Example 696],Nav1.1 current amplification rate (%),[2],306%
C[C@H]1CC[C@H](c2ccc(=O)n(CC(=O)Nc3ccc(C#N)cc3)n2)CC1 [Example 43],Nav1.1 current amplification rate (%),[6],174%
Cc1ccc(-c2cnc3cnn(CC(=O)N4CCN(c5cccnc5)CC4)c3n2)c(F)c1 [Example 742],activation at 1 µM,[3],32%
CC1CC=C(c2ccc(=O)n(CC(=O)Nc3ccc4oc(CN(C)C)nc4c3)n2)CC1 (stereo not shown) [Example 324],Nav1.1 current amplification rate (%),[1],50%
CC1CCN(c2ccc(=O)n(CC(=O)Nc3ccc(C#N)nc3)n2)CC1 [Example 51],Nav1.1 current amplification rate (%),[6],196%
CC1(C)CN(c2ccc3cnn(CC(=O)Nc4ccn5ncnc5c4)c3n2)C1 [Example 859],Nav1.1 current amplification rate (%),[4],39%
CC1(C)CCN(c2cnc3cnn(CC(=O)Nc4ccc5ncnn5c4)c3n2)CC1 [Example 654],Nav1.1 current amplification rate (%),[2],23%
CN(c1cnc2cnn(CC(=O)N3CCc4cc(N5CCOCC5)ccc43)c2n1)C1CC1 [Example 705],Nav1.1 current amplification rate (%),[2],54%
CC1CC=C(c2ccc(=O)n(CC(=O)N3CCc4c(CNC5COC5)cccc43)n2)CC1 (stereo not shown) [Example 313],Nav1.1 current amplification rate (%),[2],84%
CC1CC=C(c2ccc(=O)n(CC(=O)Nc3cc(F)c4ocnc4c3)n2)CC1 (stereo not shown) [Example 241],Nav1.1 current amplification rate (%),[6],260%
CN(CC1CCCC1)c1cnc2cnn(CC(=O)Nc3ccn4ncnc4c3)c2n1 [Example 626],Nav1.1 current amplification rate (%),[2],200%
CN(c1cnc2cnn(CC(=O)Nc3ccc4ncncc4c3)c2n1)C1CC2(CC2)C1 [Example 848],activation at 0.3 µM,"HEK293, concentration for evaluation 0.3 μM, HEK293 stably expressing human Nav1.1, read-out: Nav1.1 current amplification rate (%)",22%
CC1CC=C(c2ccc(=O)n(CC(=O)N3CCc4c(Cn5cncn5)cccc43)n2)CC1 (stereo not shown) [Example 294],Nav1.1 current amplification rate (%),[2],271%
CN(c1cnc2cnn(CC(=O)Nc3ccc(C#N)nn3)c2n1)C1CC(C)(C)C1 [Example 761],activation at 1 µM,[3],43%
CC1CC=C(c2ccc(=O)n(CC(=O)N3CCc4c(CNC5CCOCC5)cccc43)n2)CC1 (stereo not shown) [Example 317],Nav1.1 current amplification rate (%),[2],41%
N#Cc1cc(NC(=O)Cn2nc(N3CCCCC3)ccc2=O)ccn1 [Example 116],activation at 10 µM,[5],12%
CC1CCCN(c2ccc(=O)n(CC(=O)Nc3ccc(C#N)cc3)n2)C1 (stereo not shown) [Example 13],Nav1.1 current amplification rate (%),[6],76%

# Source: US20230109839A1, “THERAPEUTIC AGENT FOR TAUOPATHIES” (SUMITOMO PHARMA CO., LTD., priority 2020, published 2023)
